Broadly, the IC50 is the point on the concentration scale where inhibition reaches its midpoint. Broadly, the EC50 is the midpoint of the concentration-response curve. The AC50 is the midpoint of the concentration-response curve, whichever way the signal moves. As a reminder, the CC50 is the concentration at which the toxic effect on the cells reaches its halfway point.

Assay [1] concerns the target Phospholipase A2 (Homo sapiens, UniProt P04054). The format is functional.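 Note: confirmatory dose-response counterscreen on phospholipase A2, testing hits that came from an ultra-high-throughput screen for ATG4B inhibitors.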
Assay [2] deals with T1, Cysteine protease ATG4B (Homo sapiens, UniProt Q9Y4P1).
T1 sequence (Q9Y4P1 whole entry): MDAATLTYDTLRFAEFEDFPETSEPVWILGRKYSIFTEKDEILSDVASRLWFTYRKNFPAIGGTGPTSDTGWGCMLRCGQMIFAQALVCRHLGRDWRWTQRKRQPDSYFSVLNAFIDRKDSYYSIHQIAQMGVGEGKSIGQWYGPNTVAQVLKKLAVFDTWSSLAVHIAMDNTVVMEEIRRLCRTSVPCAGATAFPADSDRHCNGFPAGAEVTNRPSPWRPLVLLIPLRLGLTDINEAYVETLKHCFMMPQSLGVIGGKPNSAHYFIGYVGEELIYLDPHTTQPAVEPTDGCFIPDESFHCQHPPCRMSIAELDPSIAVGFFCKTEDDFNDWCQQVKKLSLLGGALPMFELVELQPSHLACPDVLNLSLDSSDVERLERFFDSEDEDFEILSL
The format is functional.

In assay [3] the test system is Streptococcus. Kind of assay: GAS UMAA2166 growth inhibition – luminescence, BacTiterGlo, counter-screen for streptokinase expression inhibitor project, dose response (AID 1915).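 Note: potency for reduction of bacterial viability or growth.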 The format is functional, organism-based. (In general: The purpose of a counterscreen is to sort out artefacts and off-target activity.)
Assay [4] deals with T2, Sentrin-specific protease 7 (Homo sapiens, UniProt Q9BQF6).
T2 sequence (Q9BQF6 whole entry): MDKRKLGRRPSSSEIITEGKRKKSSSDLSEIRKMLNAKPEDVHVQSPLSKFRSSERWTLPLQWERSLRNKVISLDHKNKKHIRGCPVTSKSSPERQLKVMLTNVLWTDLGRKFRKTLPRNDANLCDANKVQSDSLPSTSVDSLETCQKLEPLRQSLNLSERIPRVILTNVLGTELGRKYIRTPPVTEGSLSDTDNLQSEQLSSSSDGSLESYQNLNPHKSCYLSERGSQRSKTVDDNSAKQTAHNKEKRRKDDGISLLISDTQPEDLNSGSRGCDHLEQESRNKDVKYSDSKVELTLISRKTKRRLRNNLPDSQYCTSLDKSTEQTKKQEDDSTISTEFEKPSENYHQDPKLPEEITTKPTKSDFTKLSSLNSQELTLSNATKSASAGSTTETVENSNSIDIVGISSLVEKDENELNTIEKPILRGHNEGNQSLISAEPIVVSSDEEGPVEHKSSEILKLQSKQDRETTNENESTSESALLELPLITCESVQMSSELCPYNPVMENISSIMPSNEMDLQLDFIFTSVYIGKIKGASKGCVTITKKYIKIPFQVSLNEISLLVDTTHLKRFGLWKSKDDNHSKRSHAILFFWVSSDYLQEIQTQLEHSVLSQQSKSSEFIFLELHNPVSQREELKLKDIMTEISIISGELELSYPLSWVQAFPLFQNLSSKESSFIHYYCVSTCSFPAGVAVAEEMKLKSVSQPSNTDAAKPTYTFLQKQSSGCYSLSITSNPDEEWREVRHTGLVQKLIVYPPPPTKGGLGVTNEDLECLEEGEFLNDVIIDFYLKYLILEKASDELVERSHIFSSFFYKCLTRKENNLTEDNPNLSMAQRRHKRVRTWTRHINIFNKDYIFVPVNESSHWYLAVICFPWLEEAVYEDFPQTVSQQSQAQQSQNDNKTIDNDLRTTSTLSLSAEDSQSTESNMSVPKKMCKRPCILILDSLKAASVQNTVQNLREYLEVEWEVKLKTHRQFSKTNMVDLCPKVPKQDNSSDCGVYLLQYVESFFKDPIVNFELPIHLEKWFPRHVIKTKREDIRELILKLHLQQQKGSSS
Format: functional.

Assay [5] deals with T3, Sentrin-specific protease 8 (Homo sapiens, UniProt Q96LD8).
T3 sequence (Q96LD8 whole entry): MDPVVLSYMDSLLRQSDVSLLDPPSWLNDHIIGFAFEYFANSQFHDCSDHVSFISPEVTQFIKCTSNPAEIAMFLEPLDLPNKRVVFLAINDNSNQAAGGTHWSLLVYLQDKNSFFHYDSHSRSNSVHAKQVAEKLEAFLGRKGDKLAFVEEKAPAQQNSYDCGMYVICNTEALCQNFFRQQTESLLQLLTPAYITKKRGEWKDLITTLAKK
Format: functional.

For assay [6], the target named is T4, Streptokinase A (Streptococcus pyogenes serotype M1, UniProt P10520).
T4 sequence (P10520 whole entry): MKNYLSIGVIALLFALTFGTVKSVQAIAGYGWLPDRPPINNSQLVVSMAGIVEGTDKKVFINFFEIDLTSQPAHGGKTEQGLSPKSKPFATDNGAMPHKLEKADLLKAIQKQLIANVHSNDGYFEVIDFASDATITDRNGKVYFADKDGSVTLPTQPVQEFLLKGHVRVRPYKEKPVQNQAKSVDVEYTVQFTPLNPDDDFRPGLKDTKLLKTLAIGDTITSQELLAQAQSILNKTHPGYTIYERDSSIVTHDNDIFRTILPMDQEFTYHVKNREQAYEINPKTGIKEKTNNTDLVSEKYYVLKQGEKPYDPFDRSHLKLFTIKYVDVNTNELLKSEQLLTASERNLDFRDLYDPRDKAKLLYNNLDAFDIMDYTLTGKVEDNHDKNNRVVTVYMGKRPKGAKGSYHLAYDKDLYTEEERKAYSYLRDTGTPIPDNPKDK
Kind of assay: viability-normalized secreted streptokinase activity reduction – plasminogen activation absorbance, OD405, dose response (AID 1914).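 Note: secreted streptokinase activity via plasminogen activation per viability signal from cell pellet.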 The format is functional, Streptococcus pyogenes M1 GAS.

The target of assay [7] is T5, Sentrin-specific protease 6 (Homo sapiens, UniProt Q9GZR1).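 Note: Luminescence-based dose-response confirmatory assay of SENP6 inhibition, following up an ultra-high-throughput screen.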
T5 sequence (Q9GZR1 whole entry): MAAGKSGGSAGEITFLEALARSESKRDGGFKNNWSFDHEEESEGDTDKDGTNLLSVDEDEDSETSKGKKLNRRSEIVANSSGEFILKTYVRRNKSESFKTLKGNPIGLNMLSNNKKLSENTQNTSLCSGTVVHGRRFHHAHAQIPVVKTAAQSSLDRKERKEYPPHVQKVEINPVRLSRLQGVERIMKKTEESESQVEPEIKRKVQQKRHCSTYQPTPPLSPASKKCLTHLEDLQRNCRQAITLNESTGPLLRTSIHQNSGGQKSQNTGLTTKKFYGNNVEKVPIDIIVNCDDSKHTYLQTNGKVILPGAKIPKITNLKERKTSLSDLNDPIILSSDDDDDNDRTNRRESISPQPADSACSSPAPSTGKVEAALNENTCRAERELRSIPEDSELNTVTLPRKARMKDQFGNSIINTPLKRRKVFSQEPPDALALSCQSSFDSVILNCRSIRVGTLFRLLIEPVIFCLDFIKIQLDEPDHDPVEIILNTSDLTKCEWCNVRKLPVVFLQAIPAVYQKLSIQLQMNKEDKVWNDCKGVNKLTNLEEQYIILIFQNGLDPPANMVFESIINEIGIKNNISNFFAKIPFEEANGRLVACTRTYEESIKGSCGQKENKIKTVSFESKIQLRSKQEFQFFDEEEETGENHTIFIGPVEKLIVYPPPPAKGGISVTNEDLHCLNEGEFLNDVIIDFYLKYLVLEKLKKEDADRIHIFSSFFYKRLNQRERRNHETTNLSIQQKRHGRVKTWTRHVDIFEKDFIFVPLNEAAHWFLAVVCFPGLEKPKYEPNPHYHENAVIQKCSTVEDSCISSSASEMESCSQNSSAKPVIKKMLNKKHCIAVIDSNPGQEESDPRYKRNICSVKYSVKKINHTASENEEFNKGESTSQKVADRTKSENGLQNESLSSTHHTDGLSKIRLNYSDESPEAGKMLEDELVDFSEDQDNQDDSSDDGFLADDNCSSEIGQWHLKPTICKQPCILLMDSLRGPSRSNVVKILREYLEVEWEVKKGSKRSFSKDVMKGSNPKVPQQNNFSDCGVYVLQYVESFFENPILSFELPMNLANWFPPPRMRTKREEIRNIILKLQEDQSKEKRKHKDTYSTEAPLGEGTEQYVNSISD
Format: functional.

Assay [8] deals with T6, Caspase-3 (Homo sapiens, UniProt P42574).
T6 sequence (P42574 whole entry): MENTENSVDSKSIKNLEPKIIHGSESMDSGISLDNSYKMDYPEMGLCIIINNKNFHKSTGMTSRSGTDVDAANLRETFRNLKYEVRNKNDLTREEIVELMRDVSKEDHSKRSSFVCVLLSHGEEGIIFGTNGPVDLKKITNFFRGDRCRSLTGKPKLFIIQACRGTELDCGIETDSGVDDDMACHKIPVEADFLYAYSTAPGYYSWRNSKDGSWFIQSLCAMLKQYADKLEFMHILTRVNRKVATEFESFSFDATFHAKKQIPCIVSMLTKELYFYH
Format: functional.

Assay [9] deals with Streptococcus sp. 'group A'. Kind of assay: Streptococcus pyogenes SK(-)GAS viability under kanamycin – luminescence, BacTiterGlo, confirmation, counter-screen for streptokinase expression inhibitor project, dose response (AID 1900). Format: functional, organism-based.
The target of assay [10] is Heat shock protein HSP 90-alpha (Homo sapiens, UniProt P07900). The format is functional, organism-based.
For assay [11], the system named is H9c2. Kind of assay: cells. The note with it: Rattus norvegicus, H9c2, Myocardium. The format is functional, cell-based.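 Note: confirmatory concentration-response retest of ultra-high-throughput screening hits for modulation of myocardial damage; cell death induced by hydrogen peroxide oxidative stress; compound pretreatment for 60 min then peroxide exposure for 2 h; potency is for protecting the cells against peroxide damage rather than for killing them.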
Assay [12] addresses T7, Aminopeptidase N (Plasmodium falciparum FcB1/Columbia, UniProt O96935).
T7 sequence (O96935 whole entry): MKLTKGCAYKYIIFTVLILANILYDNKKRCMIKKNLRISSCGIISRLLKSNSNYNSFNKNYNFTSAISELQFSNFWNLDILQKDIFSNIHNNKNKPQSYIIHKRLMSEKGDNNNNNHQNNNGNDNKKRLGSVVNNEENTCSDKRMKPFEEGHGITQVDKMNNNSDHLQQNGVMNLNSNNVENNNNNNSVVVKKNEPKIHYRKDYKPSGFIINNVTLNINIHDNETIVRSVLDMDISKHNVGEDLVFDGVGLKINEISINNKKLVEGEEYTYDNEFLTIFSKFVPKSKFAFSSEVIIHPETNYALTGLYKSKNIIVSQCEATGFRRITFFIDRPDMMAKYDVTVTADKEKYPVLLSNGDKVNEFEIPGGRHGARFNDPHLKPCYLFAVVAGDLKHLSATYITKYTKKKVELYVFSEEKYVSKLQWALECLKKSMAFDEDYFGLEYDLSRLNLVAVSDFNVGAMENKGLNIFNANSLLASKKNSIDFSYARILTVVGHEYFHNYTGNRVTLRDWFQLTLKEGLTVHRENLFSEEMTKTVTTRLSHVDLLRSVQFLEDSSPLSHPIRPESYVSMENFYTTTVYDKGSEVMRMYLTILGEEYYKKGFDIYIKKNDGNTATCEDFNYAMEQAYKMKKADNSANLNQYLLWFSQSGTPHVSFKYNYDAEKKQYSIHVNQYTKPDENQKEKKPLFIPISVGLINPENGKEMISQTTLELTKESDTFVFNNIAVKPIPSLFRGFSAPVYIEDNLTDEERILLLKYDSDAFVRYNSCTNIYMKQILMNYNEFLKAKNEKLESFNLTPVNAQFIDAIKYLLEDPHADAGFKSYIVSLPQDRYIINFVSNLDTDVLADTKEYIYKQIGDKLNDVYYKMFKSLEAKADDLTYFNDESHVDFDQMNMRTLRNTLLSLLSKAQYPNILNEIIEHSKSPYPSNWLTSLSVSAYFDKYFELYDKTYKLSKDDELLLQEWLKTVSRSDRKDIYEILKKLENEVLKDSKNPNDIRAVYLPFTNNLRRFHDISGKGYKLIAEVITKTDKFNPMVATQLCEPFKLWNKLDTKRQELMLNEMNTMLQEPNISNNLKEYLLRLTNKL
Kind of assay: malaria alanyl aminopeptidase activity blockers – biochemical, fluorogenic H-Leu-NHMec substrate, 1536-well (AID 1445). On the set-up: species or system Plasmodium falciparum 3D7, 3D7.

The nature of assay [13]: viability of uninfected HEp-2 cells – cell-based, HTS, cytotoxicity control for RSV inhibitor project, dose response (AID 2410). The format is functional. The note with it: human respiratory syncytial virus.

Activity calls are given as the source filed them. Bounds are passed on as bounds.

Phospholipase A2, sequence (P04054 whole entry): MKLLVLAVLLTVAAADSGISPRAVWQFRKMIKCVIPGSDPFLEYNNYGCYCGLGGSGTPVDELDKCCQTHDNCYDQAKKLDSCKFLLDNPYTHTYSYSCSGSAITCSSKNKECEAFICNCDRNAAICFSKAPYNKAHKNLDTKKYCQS

Consider `C=CCn1c(-c2oc3nc(-c4ccccc4)cc(-c4ccccc4)c3c2N)n[nH]c1=S`, for which the results for the IC50 in assay [1] and in [2] were 20.7 µM (inactive) and 21.5 µM (inactive), respectively.

`O=C(Nc1nc2c(cc3c4c(cccc42)CC3)s1)c1ccccc1Cl`: the IC50 in assay [1] is 15.7 µM (active); in assay [2], > 80 µM (inactive).

For the compound `OC(c1ccc(OCc2ccccc2)cc1)c1nnc(-c2ccccc2)o1` (configuration not stated), the EC50 is > 150 µM (not active) in assay [3], 77.8 µM (active) in assay [6] and 19 µM (active) in assay [9]. Besides, the IC50 in assay [4] is 12.8 µM (active); in assay [5], 75.6 µM (active); in assay [7] it was 33.2 µM (active); in assay [8], 69.2 µM (active).

Take `C=CCn1c(C)cc(C(=O)CSc2nnc(NCc3ccccc3)s2)c1C`: in assay [10], the AC50 was 4.03 µM (active).

Turning to `CN(C)S(=O)(=O)c1ccc2[nH]cc(/C=C/c3nc4ccccc4c(=O)n3-c3ccccc3)c2c1`, the IC50 was 46.6 µM (inactive) in [1], > 79 µM (inactive) in [11] and 18.6 µM (active) in assay [2].

On to `COc1ccc2oc3ccc(OC)cc3c(=O)c2c1`, for which the IC50 in [4] was 9.8 µM (active); in assay [5], 69.1 µM (active); in assay [7], 15.1 µM (active); in assay [8], 11 µM (active).

Take `Cc1cccc(C)c1OCc1nc2ccccc2c(=O)n1/N=C/c1ccc(OCC(=O)O)cc1`: the IC50 in assay [12] is < 1 µM (active); in assay [1], 9.81 µM (active); in assay [2] it was 14.7 µM (active).

Consider `Cc1nc(N/N=C\c2ccc3c(c2)OCO3)sc1C`, for which the concentration giving a half-maximal response (EC50) in assay [3] is 31.7 µM (active); in assay [6], > 150 µM (not active); in assay [9] it was 23.6 µM (active). Moreover, the IC50 in assay [4] is 12 µM (active); in assay [5] it was 72.7 µM (active); in assay [7], 39.1 µM (active); in [8], 33.2 µM (active).

Regarding `Cc1ccc(S(=O)(=O)Nc2ccccc2/C=N/c2nc3ccccc3n2C(C)C)cc1`, the IC50 in [1] is 13.2 µM (active); in assay [2], 15.1 µM (active). In addition, the CC50 in [13] was 14.9 µM (active).
